Measured values published in ChEMBL document CHEMBL1153107, “A highly atom economic, chemo-, regio- and stereoselective synthesis and evaluation of spiro-pyrrolothiazoles as antitubercular agents” (2010).
Values after ≈ are worked out from the molar mass of the structure shown.

tested on: Mycobacterium tuberculosis; test: Antitubercular activity against Mycobacterium tuberculosis; format: functional

Which MIC does the source give for `CN1C/C(=C\c2ccc(Br)cc2)C(=O)[C@]2(C1)[C@H](c1ccc(Br)cc1)[C@@H]1CSCN1[C@@]21C(=O)Nc2ccccc21` here?
The MIC was 4.7 µM (≈ 3.13 µg/mL).

For `CN1C/C(=C\c2ccccc2)C(=O)[C@]2(C1)[C@H](c1ccccc1)[C@@H]1CSCN1[C@@]21C(=O)Nc2ccccc21`, which MIC is on record?
The MIC was 49.2 µM (≈ 25 µg/mL).

Which MIC does the source give for `CN1C/C(=C\c2ccc(Br)cc2)C(=O)[C@]2(C1)[C@H](c1ccc(Br)cc1)[C@@H]1CSCN1[C@@]21C(=O)Nc2ccc(Cl)cc21` here?
The MIC was 4.4 µM (≈ 3.08 µg/mL).

For `CC(C)c1ccc(/C=C2\CN(C)C[C@@]3(C2=O)[C@H](c2ccc(C(C)C)cc2)[C@@H]2CSCN2[C@@]32C(=O)Nc3ccccc32)cc1`, which MIC is on record?
The MIC was 10.6 µM (≈ 6.27 µg/mL).

How did the MIC turn out when `COc1ccccc1/C=C1\CN(C)C[C@@]2(C1=O)[C@H](c1ccccc1OC)[C@@H]1CSCN1[C@@]21C(=O)Nc2ccccc21` was run?
Its MIC is 22 µM (≈ 12.5 µg/mL).

For `COc1ccc(/C=C2\CN(C)C[C@@]3(C2=O)[C@H](c2ccc(OC)cc2OC)[C@@H]2CSCN2[C@@]32C(=O)Nc3ccccc32)c(OC)c1`, which MIC is on record?
The MIC was 19.9 µM (≈ 12.5 µg/mL).

`CN1C/C(=C\c2ccc(Cl)cc2Cl)C(=O)[C@]2(C1)[C@H](c1ccc(Cl)cc1Cl)[C@@H]1CSCN1[C@@]21C(=O)Nc2ccc(Cl)cc21` was tested. Which MIC did it give?
Its MIC is 1.2 µM (≈ 0.816 µg/mL).

Which MIC does the source give for `Cc1ccc(/C=C2\CN(C)C[C@@]3(C2=O)[C@H](c2ccc(C)cc2)[C@@H]2CSCN2[C@@]32C(=O)Nc3ccc([N+](=O)[O-])cc32)cc1` here?
Its MIC is 5.3 µM (≈ 3.08 µg/mL).

How did the MIC turn out when `CN1C/C(=C\c2ccc(Cl)cc2Cl)C(=O)[C@]2(C1)[C@H](c1ccc(Cl)cc1Cl)[C@@H]1CSCN1[C@@]21C(=O)Nc2ccc([N+](=O)[O-])cc21` was run?
Its MIC is 0.6 µM (≈ 0.414 µg/mL).

Which MIC does the source give for `COc1ccc(/C=C2\CN(C)C[C@@]3(C2=O)[C@H](c2ccc(OC)cc2OC)[C@@H]2CSCN2[C@@]32C(=O)Nc3ccc([N+](=O)[O-])cc32)c(OC)c1` here?
Its MIC is 9.4 µM (≈ 6.32 µg/mL).

Which MIC does the source give for `CN1C/C(=C\c2ccccc2Cl)C(=O)[C@]2(C1)[C@H](c1ccccc1Cl)[C@@H]1CSCN1[C@@]21C(=O)Nc2ccccc21` here?
Its MIC is 10.9 µM (≈ 6.28 µg/mL).

With `CN1C/C(=C\c2ccc(F)cc2)C(=O)[C@]2(C1)[C@H](c1ccc(F)cc1)[C@@H]1CSCN1[C@@]21C(=O)Nc2ccccc21` as the compound, how does the MIC read?
Its MIC is 5.7 µM (≈ 3.1 µg/mL).

How did the MIC turn out when `Cc1ccccc1/C=C1\CN(C)C[C@@]2(C1=O)[C@H](c1ccccc1C)[C@@H]1CSCN1[C@@]21C(=O)Nc2ccccc21` was run?
The MIC was 23.3 µM (≈ 12.5 µg/mL).

`Cc1ccc(/C=C2\CN(C)C[C@@]3(C2=O)[C@H](c2ccc(C)cc2)[C@@H]2CSCN2[C@@]32C(=O)Nc3ccccc32)cc1` was tested. Which MIC did it give?
Its MIC is 23.3 µM (≈ 12.5 µg/mL).

For `CN1C/C(=C\c2ccc(Cl)cc2)C(=O)[C@]2(C1)[C@H](c1ccc(Cl)cc1)[C@@H]1CSCN1[C@@]21C(=O)Nc2ccccc21`, which MIC is on record?
Its MIC is 5.4 µM (≈ 3.11 µg/mL).

With `CN1C/C(=C\c2ccccc2)C(=O)[C@]2(C1)[C@H](c1ccccc1)[C@@H]1CSCN1[C@@]21C(=O)Nc2ccc(Cl)cc21` as the compound, how does the MIC read?
The MIC was 23.1 µM (≈ 12.5 µg/mL).

Which MIC does the source give for `COc1ccc(/C=C2\CN(C)C[C@@]3(C2=O)[C@H](c2ccc(OC)cc2OC)[C@@H]2CSCN2[C@@]32C(=O)Nc3ccc(Cl)cc32)c(OC)c1` here?
Its MIC is 18.9 µM (≈ 12.5 µg/mL).

With `CN1C/C(=C\c2ccccc2-c2cccs2)C(=O)[C@]2(C1)[C@H](c1ccccc1-c1cccs1)[C@@H]1CSCN1[C@@]21C(=O)Nc2ccc(Cl)cc21` as the compound, how does the MIC read?
Its MIC is 11.4 µM (≈ 8.05 µg/mL).

For `CN1C/C(=C\c2ccccc2)C(=O)[C@]2(C1)[C@H](c1ccccc1)[C@@H]1CSCN1[C@@]21C(=O)Nc2ccc([N+](=O)[O-])cc21`, which MIC is on record?
The MIC was 5.6 µM (≈ 3.09 µg/mL).

`CN1C/C(=C\c2ccc(Cl)cc2)C(=O)[C@]2(C1)[C@H](c1ccc(Cl)cc1)[C@@H]1CSCN1[C@@]21C(=O)Nc2ccc([N+](=O)[O-])cc21` was tested. Which MIC did it give?
The MIC was 1.3 µM (≈ 0.808 µg/mL).

For `COc1ccc(/C=C2\CN(C)C[C@@]3(C2=O)[C@H](c2ccc(OC)cc2)[C@@H]2CSCN2[C@@]32C(=O)Nc3ccc([N+](=O)[O-])cc32)cc1`, which MIC is on record?
The MIC was 10.3 µM (≈ 6.31 µg/mL).

How did the MIC turn out when `CN1C/C(=C\c2ccc(F)cc2)C(=O)[C@]2(C1)[C@H](c1ccc(F)cc1)[C@@H]1CSCN1[C@@]21C(=O)Nc2ccc([N+](=O)[O-])cc21` was run?
Its MIC is 1.4 µM (≈ 0.824 µg/mL).

`CN1C/C(=C\c2ccc(Br)cc2)C(=O)[C@]2(C1)[C@H](c1ccc(Br)cc1)[C@@H]1CSCN1[C@@]21C(=O)Nc2ccc([N+](=O)[O-])cc21` was tested. Which MIC did it give?
The MIC was 1.1 µM (≈ 0.781 µg/mL).

With `CN1C/C(=C\c2ccc(Cl)cc2Cl)C(=O)[C@]2(C1)[C@H](c1ccc(Cl)cc1Cl)[C@@H]1CSCN1[C@@]21C(=O)Nc2ccccc21` as the compound, how does the MIC read?
The MIC was 4.7 µM (≈ 3.03 µg/mL).

For `CN1C/C(=C\c2ccccc2-c2cccs2)C(=O)[C@]2(C1)[C@H](c1ccccc1-c1cccs1)[C@@H]1CSCN1[C@@]21C(=O)Nc2ccccc21`, which MIC is on record?
The MIC was 12.1 µM (≈ 8.13 µg/mL).

`CN1C/C(=C\c2ccccc2Cl)C(=O)[C@]2(C1)[C@H](c1ccccc1Cl)[C@@H]1CSCN1[C@@]21C(=O)Nc2ccc([N+](=O)[O-])cc21` was tested. Which MIC did it give?
The MIC was 2.6 µM (≈ 1.62 µg/mL).

With `Cc1ccccc1/C=C1\CN(C)C[C@@]2(C1=O)[C@H](c1ccccc1C)[C@@H]1CSCN1[C@@]21C(=O)Nc2ccc([N+](=O)[O-])cc21` as the compound, how does the MIC read?
The MIC was 5.3 µM (≈ 3.08 µg/mL).

Which MIC does the source give for `COc1ccccc1/C=C1\CN(C)C[C@@]2(C1=O)[C@H](c1ccccc1OC)[C@@H]1CSCN1[C@@]21C(=O)Nc2ccc([N+](=O)[O-])cc21` here?
Its MIC is 5.1 µM (≈ 3.12 µg/mL).

`CN1C/C(=C\c2ccccc2-c2cccs2)C(=O)[C@]2(C1)[C@H](c1ccccc1-c1cccs1)[C@@H]1CSCN1[C@@]21C(=O)Nc2ccc([N+](=O)[O-])cc21` was tested. Which MIC did it give?
Its MIC is 5.5 µM (≈ 3.94 µg/mL).

Which MIC does the source give for `COc1ccc(/C=C2\CN(C)C[C@@]3(C2=O)[C@H](c2ccc(OC)cc2)[C@@H]2CSCN2[C@@]32C(=O)Nc3ccccc32)cc1` here?
Its MIC is 22 µM (≈ 12.5 µg/mL).

With `CN1C/C(=C\c2ccc(Cl)cc2)C(=O)[C@]2(C1)[C@H](c1ccc(Cl)cc1)[C@@H]1CSCN1[C@@]21C(=O)Nc2ccc(Cl)cc21` as the compound, how does the MIC read?
The MIC was 5.1 µM (≈ 3.12 µg/mL).

For `Cc1ccc(/C=C2\CN(C)C[C@@]3(C2=O)[C@H](c2ccc(C)cc2)[C@@H]2CSCN2[C@@]32C(=O)Nc3ccc(Cl)cc32)cc1`, which MIC is on record?
Its MIC is 11 µM (≈ 6.27 µg/mL).

`COc1ccc(/C=C2\CN(C)C[C@@]3(C2=O)[C@H](c2ccc(OC)cc2)[C@@H]2CSCN2[C@@]32C(=O)Nc3ccc(Cl)cc32)cc1` was tested. Which MIC did it give?
Its MIC is 20.8 µM (≈ 12.5 µg/mL).

For `CN1C/C(=C\c2ccc(F)cc2)C(=O)[C@]2(C1)[C@H](c1ccc(F)cc1)[C@@H]1CSCN1[C@@]21C(=O)Nc2ccc(Cl)cc21`, which MIC is on record?
The MIC was 2.8 µM (≈ 1.62 µg/mL).

How did the MIC turn out when `CC(C)c1ccc(/C=C2\CN(C)C[C@@]3(C2=O)[C@H](c2ccc(C(C)C)cc2)[C@@H]2CSCN2[C@@]32C(=O)Nc3ccc(Cl)cc32)cc1` was run?
Its MIC is 10.1 µM (≈ 6.33 µg/mL).

With `CN1C/C(=C\c2ccccc2Cl)C(=O)[C@]2(C1)[C@H](c1ccccc1Cl)[C@@H]1CSCN1[C@@]21C(=O)Nc2ccc(Cl)cc21` as the compound, how does the MIC read?
The MIC was 5.1 µM (≈ 3.12 µg/mL).

Which MIC does the source give for `Cc1ccccc1/C=C1\CN(C)C[C@@]2(C1=O)[C@H](c1ccccc1C)[C@@H]1CSCN1[C@@]21C(=O)Nc2ccc(Cl)cc21` here?
Its MIC is 11 µM (≈ 6.27 µg/mL).

With `COc1ccccc1/C=C1\CN(C)C[C@@]2(C1=O)[C@H](c1ccccc1OC)[C@@H]1CSCN1[C@@]21C(=O)Nc2ccc(Cl)cc21` as the compound, how does the MIC read?
The MIC was 20.8 µM (≈ 12.5 µg/mL).

`CC[C@@H](CO)NCCN[C@@H](CC)CO` [ETHAMBUTOL] was tested. Which MIC did it give?
Its MIC is 7.6 µM (≈ 1.55 µg/mL).

With `NNC(=O)c1ccncc1` [ISONIAZID] as the compound, how does the MIC read?
Its MIC is 0.4 µM (≈ 0.0549 µg/mL).

Which MIC does the source give for `NC(=O)c1cnccn1` [PYRAZINAMIDE] here?
The MIC was 50.8 µM (≈ 6.25 µg/mL).

How did the MIC turn out when `CO[C@H]1/C=C/O[C@@]2(C)Oc3c(C)c(O)c4c(O)c(c(/C=N/N5CCN(C)CC5)c(O)c4c3C2=O)NC(=O)/C(C)=C\C=C\[C@H](C)[C@H](O)[C@@H](C)[C@@H](O)[C@@H](C)[C@H](OC(C)=O)[C@@H]1C` [RIFAMPIN] was run?
The MIC was 0.1 µM (≈ 0.0823 µg/mL).
